Like-named read-outs stand apart in the source and are kept apart here.
Assays:
[1] = biological target: nucleocapsid (N) protein of SARS-CoV-2 (SARS-CoV-2-N) (Severe acute respiratory syndrome coronavirus 2, UniProt P0DTC9); format: binding; conditions: for Kd: read-out: dissociation constant (KD)
SARS-CoV-2 [2] = test: in vitro anti-SARS-CoV-2 virus infection assay in Vero E6 cells, viral yield in supernatant by qRT-PCR; format: cell-based
[3] = design: method as in earlier work; conditions: rats, 54 mg/kg oral; cited from earlier work
[4] = design: method as in https://www.ema.europa.eu/en/medicines/human/EPAR/rubraca; conditions: ref https://www.ema.europa.eu/en/medicines/human/EPAR/rubraca; cited from earlier work
SARS-CoV-2 [5] = test: time-of-addition assay (full-time, entry, post-entry) in Vero E6 cells; format: cell-based; conditions: Severe acute respiratory syndrome coronavirus 2, Vero C1008, 14 h
IFN-γ = test: LPS-induced IFN-γ production in PBMCs (ELISA); format: cell-based, human; conditions: both 3 μM and 1 μM; 6 h and 24 h
Description: (§1) Peripheral blood mononuclear cells (Allcells) were cultured at 37 °C at concentration 5% CO2 atmospheric on a 96-well plate in RPMI1640 cell growth medium (Gibico, Cat. 11875-093). For stimulation, PBMC cells were incubated with 1 μg/mL LPS (Sigma, Cat. L2880-25MG). To test whether CVL218 and olaparib can inhibit the production of IL-6, IL-10, IFN-γ, TNF-α, 1 μM and 3 μM concentrations of CVL218 or olaparib were added to cell culture medium for 6 and 24 h, respectively. The concentration of each cytokine was determined by ELISA using a commercial kit (BioLegend, USA).

[6] = biodistribution (tissue distribution) study in rats; format: in vivo, Sprague-Dawley rats; conditions: 20 mg/kg oral, 180 min time point
Vero E6 cells = conditions: CCK8, 48 h
[7] = Phase I clinical trial, ascending dose studies; format: in vivo, human; conditions: doses as high as 1000 mg QD and 500 mg BID; preliminary Phase I data
SARS-CoV-2 [8] = test: inhibitor combination assay in Vero E6 cells; format: cell-based
Description: The cytotoxicity of the tested drugs on Vero E6 cells was determined by the CCK8 assays (Beyotime, China). At 48 h post addition of the tested drugs, 20 μL CCK8 was added to each well and incubated at 37 °C for 1 h. Then optical density was measured at 450 nm. The 50% cytotoxic concentration (CC50) values were calculated using GraphPad Prism 5 (GraphPad Software, USA). Vero E6 cells were seeded into 96-well plates with a density of 5 × 10^4 cells/well for incubation in DMEM medium supplemented with 10% FBS for 16 h in an incubator with 5% CO2 at 37 °C, for cells to reach 80% confluent. Then, cell culture medium of each well was removed, and PBS was used to wash the cells once, before evaluating the antiviral efficacy of the tested drugs. Four duplicated wells were made for each dose of drugs, and the cells were pretreated with different doses of antiviral drugs diluted by the cell maintenance solution (50 μL per well) for 1 h. For the virus control and cell control wells, cell medium containing DMSO or only medium of 50 μL per well was added. Next, pretreated or untreated cells in each well were infected with the virus with a multiplicity of infection (MOI) of 0.05 for 2 h. […] Then culture supernatant per well was harvested and inactivated at 56 °C for 30 min to further extract and quantify viral RNA. […]

IL-10 = test: LPS-induced IL-10 production in PBMCs (ELISA); format: cell-based, human; conditions: for LPS-induced expression of IL-10: 3 μM
Description: as §1

IL-6 = test: LPS-induced IL-6 production in PBMCs (ELISA); format: cell-based, human
Description: as §1

[9] = 28-day toxicity and toxicokinetic study in cynomolgus monkeys; format: in vivo; conditions: for AUC0−24: dose not given
Description: Healthy male and female cynomolgus monkeys aged 3–4 years were purchased from Guangdong Landau Biotechnology, China. The animals were maintained in accordance with the Guide for the Care and Use of Laboratory Animals.
Cynomolgus monkey (5/sex/group) were selected using a computerized randomization procedure, and administered CVL218 by nasogastric feeding at dose levels of 0 (control), 5, 20, 80 mg/kg. Individual dose volumes were adjusted weekly based on body weight of monkeys. The monkeys were observed twice daily for viability/mortality and for any change in behavior, reaction to treatment or ill-health. Electrocardiograms, intraocular pressure, rectal temperature and body weight were recorded. For all the groups, […] of the animals were randomly selected and euthanized at day 28. The remaining animals were euthanized after a 28-day drug free period. Blood samples were taken before and at 0.5, 1, 2, 4, 8, and 24 h post-dose on days 1 and 28 of the treatment period. Pharmacokinetic evaluation was performed using a noncompartmental method (Phoenix, version 1.3, USA) and pharmacokinetic parameters were calculated for individual monkeys.

[10] = four-week toxicity and toxicokinetic study in rats; format: in vivo, Sprague-Dawley rats; conditions: for AUC0−24: dose not given
Description: Sprague-Dawley rats were purchased from Shanghai Laboratory Animal Center, China. The animals were grouped and housed in wire cages with no more than six per cage, under good laboratory conditions (temperature 25 ± 2 °C; relative humidity 50 ± 20%) and with dark and light cycle (12 h/12 h). Only healthy animals were used for experimental purpose. The pharmacokinetics and biodistribution study in Sprague-Dawley rats was approved by Center for Drug Safety Evaluation and Research, Shanghai Institute of Materia Medica, Chinese Academy of Sciences. A total of 144 Sprague-Dawley rats with each sex were used for toxicity study. Animals were randomly separated into four groups (18/sex/group). CVL218 was administered at doses of 20, 40, 60, and 160 mg/kg. For all the groups, 20 rats (10/sex/group) were randomly selected and euthanized at day 28, and their sections of various tissues and organs were obtained and frozen. Ten (5/sex/group) animals were euthanized after a 28-day drug free period, and their sections of tissues and organs were obtained and frozen. Six (3/sex/group) were euthanized after the blood samples were obtained. For pharmacokinetic and toxicity evaluation, clinical symptoms, mortality and the animals’ body weight were examined. Serum (0.5 mL) was collected to analyze toxicokinetics at different timepoints post drug administration. The plasma concentration-time data were analyzed using a noncompartmental method (Phoenix, version 1.3, USA) to derive the pharmacokinetic parameters.

SARS-CoV-2 [11] = test: indirect immunofluorescence / RT-PCR of virus nucleoprotein expression in infected Vero E6 cells; format: cell-based
TNF-α = test: LPS-induced TNF-α production in PBMCs (ELISA); format: cell-based, human; conditions: both 3 μM and 1 μM; 6 h and 24 h
Description: as §1

[12] = Severe acute respiratory syndrome coronavirus 2, Vero C1008, read-out: % Inhibition of SARS-CoV-2 replication
[13] = monkeys, nasogastric, daily for 28 days
[14] = rats, oral gavage once a day for 28 days

In the case of CN(C)CC(=O)Nc1ccc2[nH]c(=O)c3ccccc3c2c1.Cl [PJ-34, N-(6-oxo-5,6-dihydrophenanthridin-2-yl)-N, N-dimethylacetamide. HCl], the “fold lower binding affinity than CVL218” value [1] is reported as “about 22 fold” and the Kd [1] is reported as 68.1 µM.

For CCOC(=O)c1c(CSc2ccccc2)n(C)c2cc(Br)c(O)c(CN(C)C)c12 [arbidol], the inhibition at 30 µM (SARS-CoV-2 [2]; [12]) is listed as 99%, the inhibition at 3 µM (SARS-CoV-2 [2]; Severe acute respiratory syndrome coronavirus 2, Vero C1008, 3 μM, Vero E6, MOI 0.05, qRT-PCR, preliminary test, read-out: % Inhibition of SARS-CoV-2 replication) is listed as 21.8% and the “tissue distribution post administration” value [3] is listed as “mostly distributed in stomach and plasma”.

For CNCc1ccc(-c2[nH]c3cc(F)cc4c3c2CCNC4=O)cc1 [rucaparib], the “accessibility in the lung tissue” value [4] is given as “poor accessibility”.

Work on CCC(CC)COC(=O)[C@H](C)N[P@](=O)(OC[C@H]1O[C@@](C#N)(c2ccc3c(N)ncnn23)[C@H](O)[C@@H]1O)Oc1ccccc1 [remdesivir] yielded an inhibition at 10 µM (SARS-CoV-2 [5]; read-out: % Inhibition, Entry) of 5.86%, an inhibition at 10 µM (SARS-CoV-2 [5]; read-out: % Inhibition, Full-time) of 92.9% and an inhibition at 10 µM (SARS-CoV-2 [5]; read-out: % Inhibition, Post-entry) of 91.9%.

Molecule CC(=O)N[C@H]1[C@H]([C@H](O)[C@H](O)CO)OC(C(=O)O)=C[C@@H]1N=C(N)N [Zanamivir] has an inhibition at 3 µM (SARS-CoV-2 [2]; [12]) of -10.4%.

With CNCc1ccc(-c2cc3cc(F)cc(C(N)=O)c3o2)cc1 [CVL218] the “% Inhibition of SARS-CoV-2 replication” value (SARS-CoV-2 [2]; 3 μM, Vero E6, MOI 0.05, qRT-PCR, preliminary test) was 34.64%, the EC50 (SARS-CoV-2 [2]; Vero E6, MOI 0.05, 48 h, read-out: EC50 against SARS-CoV-2 replication) was 5.19 µM and the “LPS-induced concentration of IFN-γ” value (IFN-γ) was “significant decrease”. The “lung concentration compared to that in plasma” value [6] was 188 fold, the CC50 (Vero E6 cells) was 90.6 µM and the “adverse events in human” value [7] was “no Grade II and above adverse events”. The tolerability in human [7] was “well tolerated”, the “inhibition rate against SARS-CoV-2 replication” value (SARS-CoV-2 [8]; CVL218 alone at 3.5 μM) was 36% and the Kd ([1]; SPR, immobilized SARS-CoV-2-N) was 3.1 µM. The “LPS-induced expression of IL-10” value (IL-10; after 6 h) was “not downregulated”, the “LPS-induced expression of IL-10” value (IL-10; after 24 h, p < 0.001) was “dramatically reduced” and the “LPS-induced production of IL-6” value (IL-6; 3 μM, after both 6 h and 24 h incubation, p < 0.01) was “significantly repressed”. The “AUC0−24” value ([9]; female monkeys, day 1) was 19.466 µg·h/mL, the “AUC0−24” value ([9]; female monkeys, day 28) was 18.774 µg·h/mL and the “AUC0−24” value ([9]; male monkeys, day 1) was 16.924 µg·h/mL. The “AUC0−24” value ([9]; male monkeys, day 28) was 22.912 µg·h/mL, the “accumulation after consecutive 28 days of drug administration” value ([9]; monkeys, 5, 20 or 80 mg/kg) was “not apparent” and the “increase of exposure (AUC0−24) with dose” value ([9]; monkeys, 5, 20 or 80 mg/kg) was “approximately dose proportional”. For the same molecule, the body weight ([9]; monkeys, high-dose (80 mg/kg) group, reversed after 28-day recovery) was “slight decrease”, the “maximum tolerable dose (MTD)” value [9, 13] was 80 mg/kg and the “no-observed adverse effect level (NOAEL)” value [9, 13] was 5 mg/kg. For the same molecule, the “AUC0−24” value ([10]; female rats, day 1) was 7.605 µg·h/mL, the “AUC0−24” value ([10]; female rats, day 28) was 6.657 µg·h/mL and the “AUC0−24” value ([10]; male rats, day 1) was 9.102 µg·h/mL. The “AUC0−24” value ([10]; male rats, day 28) was 10.253 µg·h/mL, the “body weight versus control groups” value ([10]; rats, 20/60/160 mg/kg oral, 28 days + 28 days recovery) was “no significant difference” and the “maximum tolerable dose (MTD)” value [10, 14] was 160 mg/kg. The “no-observed adverse effect level (NOAEL)” value [10, 14] was 20 mg/kg, the “signs of toxicity after 28-day treatment period” value ([10]; rats, repeated dose) was “no apparent sign of toxicity” and the “cytopathic effect in the infected cells” value (SARS-CoV-2 [11]; 25 μM) was “no obvious cytopathic effect”. For the same molecule, the “expression level of N gene compared to DMSO” value (SARS-CoV-2 [11]; RT-PCR, 5, 15, 25 μM, 48 h post infection) was “Lower expression level”, the “virus nucleoprotein (NP) expression compared to DMSO treated cells” value (SARS-CoV-2 [11]; immunofluorescence microscopy, 5, 15, 25 μM, dose-response) was “significantly lower” and the “LPS-induced concentration of TNF-α” value (TNF-α) was “significant decrease”.

In the case of O=C(c1cc(Cc2n[nH]c(=O)c3ccccc23)ccc1F)N1CCN(C(=O)C2CC2)CC1 [olaparib, reference compound], the inhibition at 3.2 µM (SARS-CoV-2 [2]; Severe acute respiratory syndrome coronavirus 2, Vero C1008, 3.2 μM, Vero E6, MOI 0.05, qRT-PCR, preliminary test, read-out: % Inhibition of SARS-CoV-2 replication) is reported as 15.3%, the “LPS-induced concentration of IFN-γ” value (IFN-γ) is reported as “no significant inhibition” and the “dissociation constant (KD)” value ([1]; SPR, immobilized SARS-CoV-2-N) is reported as “no binding signal”. The “LPS-induced stimulation of IL-10” value (IL-10; both 3 μM and 1 μM) was “no significant inhibition”, the “LPS-induced stimulation of IL-6” value (IL-6; both 3 μM and 1 μM) was “no significant inhibition” and the “LPS-induced concentration of TNF-α” value (TNF-α) was “no significant inhibition”.

For NC(=O)c1nc(F)c[nH]c1=O [favipiravir, reference compound], the “inhibition rate against SARS-CoV-2 replication” value (SARS-CoV-2 [8]; favipiravir alone at 30 μM) was “no inhibitory activity”.

CCOC(=O)C1=C[C@@H](OC(CC)CC)[C@H](NC(C)=O)[C@@H](N)C1 [Oseltamivir] showed an inhibition at 3 µM (SARS-CoV-2 [2]; [12]) of -13.7%.

— article PMC8065335, “An integrative drug repositioning framework discovered a potential therapeutic agent targeting COVID-19” (Signal Transduction and Targeted Therapy, 2021)
